Where two headings read alike, the source gives them in different places.
Legend:
[1] = tested on: writhing syndrome induced by acetic acid in mice; assay: Test 2: writhing syndrome induced by acetic acid in mice (analgesic activity); assay type: in vivo, male ddY mice; conditions: Mus musculus
Protocol: Writhing syndrome induced by acetic acid in mice Ten male ddY mice were used per group. Writhing syndrome was produced by an intraperitoneal injection of 20 ml/kg of 0.6% acetic acid in mice. The animals were observed from 3 to 13 minutes after acetic acid injection, and a total number of writhing episodes was recorded. The drugs were given orally 1 hour before acetic acid injection. The frequency of writhing in the treated animals was compared with that in the control animals.

[2] = tested on: pyrexia induced by brewer's yeast in rats; assay: Test 3: anti-pyretic activity, brewer's yeast-induced pyrexia in rats; assay type: in vivo, male Sprague-Dawley rats; conditions: Rattus norvegicus, oral
Protocol: Anti-pyretic activity Ten male Sprague-Dawley rats were used per group. Pyrexia was induced by SC injection of 10 ml/kg of 5% brewer's yeast suspension. The drugs were given orally […] after yeast injection. Rectal temperature was measured 1 and 2 hours after administration of drugs, and the difference of rectal temperature from that before yeast injection was calculated.

[3] = tested on: inflammatory hyperalgesia induced by brewer's yeast in rats; assay: Test 5: inflammatory hyperalgesia induced by brewer's yeast in rats (analgesic activity); assay type: in vivo, male Sprague Dawley rats
Protocol: Inflammatory hyperalgesia induced by brewer's yeast in rats
Ten male Sprague Dawley rats were used per group. 0.1 Ml of 5% brewer's yeast suspended in 0.5% methylcellulose was injected into the right hind paw, The pain threshold was determined 3 hours after yeast injection, by applying pressure to the foot and reading the pressure at which the rat withdrew the foot.
The drugs were given orally 2 hours after yeast infection. The pain threshold in the treated animals was compared with that in the control animals.

[4] = rectal temperature 1 hour after administration, read-out: ED50 (1 hr)
[5] = rectal temperature 2 hours after administration, read-out: ED50 (2 hr)
[6] = oral, 1 hour before acetic acid injection, number of writhing episodes 3 to 13 minutes after, read-out: ED50

COc1ccc2c(c1)c(CC(=O)O)c(C)n2C(=O)c1ccc(Cl)cc1 [Indomethacin, reference compound] gave an ED50 ([1]; po) of 1.6 mg/kg, an ED50 [2, 4] of 4.6 mg/kg and an ED50 [2, 5] of 2.6 mg/kg. The ED30 ([3]; oral, 2 hours after yeast injection, pain threshold 3 hours after yeast injection, read-out: ED30) was 5.1 mg/kg.
Work on CS(=O)(=O)Nc1ccc(C#N)cc1Oc1ccc(F)cc1F [Example 3, 4'-Cyano-2'-(2,4-difluorophenoxy)methanesulfonanilide] yielded an ED50 [1, 6] of 2.4 mg/kg.
For CC(=O)c1ccc(NS(C)(=O)=O)c(Oc2ccc(F)cc2F)c1 [Example 1, 4'-acetyl-2'-(2,4-difluorophenoxy)methanesulfonanilide], the ED50 [1, 6] was 14 mg/kg, the ED50 [2, 4] was 10 mg/kg and the ED50 [2, 5] was 6.8 mg/kg.
Work on CC(=NNC(N)=O)c1ccc(NS(C)(=O)=O)c(Oc2ccc(F)cc2F)c1 [Example 40, 3'-(2,4-difluorophenoxy)-4'-methanesulfonamidoacetophenone semicarbazone] yielded an ED50 [1, 6] of 18 mg/kg.
For CC(=O)c1ccc(NS(C)(=O)=O)c(Oc2ccc(F)cc2Cl)c1 [Example 25, 4'-Acetyl-2'-(2-chloro-4-fluorophenoxy)methanesulfonanilide], the ED50 [1, 6] was 9.6 mg/kg.
In the case of CS(=O)(=O)Nc1ccc(C#N)cc1Oc1ccc(F)cc1F.[Na] [Example 73, 4'-cyano-2'-(2,4-difluorophenoxy)methanesulfonanilide sodium salt], the ED30 ([3]; po) is reported as 1.8 mg/kg.
Work on Cc1cc(NS(C)(=O)=O)c(Oc2ccc(F)cc2F)cc1C#N [Example 20, 4'-Cyano-2'-(2,4-difluorophenoxy)-5'-methylmethanesulfonanilide] yielded an ED50 [1, 6] of 55.8 mg/kg.
